According to publication PMC11314561, “Design and Synthesis of Novel Aminoindazole-pyrrolo[2,3-b]pyridine Inhibitors of IKKα That Selectively Perturb Cellular Non-Canonical NF-κB Signalling” (Molecules, 2024):

Assays:
Experiment in all cases: kinase panel
Format in all cases: biochemical
ZAP-70(h) = target: T1, ZAP-70(h) (Homo sapiens, UniProt P43403)
T1 sequence (P43403 1-619): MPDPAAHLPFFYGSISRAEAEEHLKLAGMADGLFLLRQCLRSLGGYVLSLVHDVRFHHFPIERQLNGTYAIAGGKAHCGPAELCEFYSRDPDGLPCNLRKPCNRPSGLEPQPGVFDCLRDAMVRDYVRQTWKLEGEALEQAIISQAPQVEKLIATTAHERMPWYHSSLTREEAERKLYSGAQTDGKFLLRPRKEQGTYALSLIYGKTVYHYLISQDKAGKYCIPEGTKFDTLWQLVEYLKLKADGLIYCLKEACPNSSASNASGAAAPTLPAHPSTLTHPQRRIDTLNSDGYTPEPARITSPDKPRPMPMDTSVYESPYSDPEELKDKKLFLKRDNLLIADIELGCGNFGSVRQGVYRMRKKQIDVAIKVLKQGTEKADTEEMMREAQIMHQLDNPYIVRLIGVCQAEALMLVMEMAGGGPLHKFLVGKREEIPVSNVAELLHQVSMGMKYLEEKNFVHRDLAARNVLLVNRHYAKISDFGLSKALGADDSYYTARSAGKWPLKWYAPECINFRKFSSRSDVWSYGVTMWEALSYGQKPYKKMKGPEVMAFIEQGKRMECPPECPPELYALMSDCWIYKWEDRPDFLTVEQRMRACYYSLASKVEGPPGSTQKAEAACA
In short: (§1)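 % inhibition read-out; kinome panel of 231 kinases; one analogue run on a selected 98-kinase subset only.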

JAK2(h) = JAK2(h) (Homo sapiens, UniProt O60674)
In short: as §1

SGK(h) = target: T2, SGK(h) (Homo sapiens, UniProt O00141)
T2 sequence (O00141 1-431): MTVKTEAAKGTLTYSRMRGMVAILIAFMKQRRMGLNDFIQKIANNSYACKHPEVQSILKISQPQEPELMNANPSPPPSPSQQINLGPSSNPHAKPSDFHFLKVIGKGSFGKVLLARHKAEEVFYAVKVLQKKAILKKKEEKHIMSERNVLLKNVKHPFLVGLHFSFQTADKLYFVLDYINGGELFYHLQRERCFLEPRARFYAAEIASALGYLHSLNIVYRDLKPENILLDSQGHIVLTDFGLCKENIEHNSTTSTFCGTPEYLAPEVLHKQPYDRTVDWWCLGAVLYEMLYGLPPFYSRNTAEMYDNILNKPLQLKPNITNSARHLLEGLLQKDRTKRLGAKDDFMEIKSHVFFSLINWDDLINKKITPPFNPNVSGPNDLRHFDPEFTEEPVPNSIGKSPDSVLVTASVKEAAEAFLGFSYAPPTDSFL
In short: as §1

CDK2/cyclinA(h) = CDK2/cyclinA(h) (Homo sapiens, UniProt P24941)
In short: as §1

CHK2(h) = CHK2(h) (Homo sapiens, UniProt O96017)
In short: as §1

HIPK1(h) = HIPK1(h) (Homo sapiens, UniProt Q86Z02)
In short: as §1

Fms(h) = Fms(h) (Homo sapiens, UniProt P07333)
In short: as §1

CDK1/cyclinB(h) = CDK1/cyclinB(h) (Homo sapiens, UniProt P06493)
In short: as §1

ErbB4(h) = ErbB4(h) (Homo sapiens, UniProt Q15303)
In short: as §1

Plk1(h) = Plk1(h) (Homo sapiens, UniProt P53350)
In short: as §1

Mer(h) = target: T3, Mer(h) (Homo sapiens, UniProt Q12866)
T3 sequence (Q12866 21-999): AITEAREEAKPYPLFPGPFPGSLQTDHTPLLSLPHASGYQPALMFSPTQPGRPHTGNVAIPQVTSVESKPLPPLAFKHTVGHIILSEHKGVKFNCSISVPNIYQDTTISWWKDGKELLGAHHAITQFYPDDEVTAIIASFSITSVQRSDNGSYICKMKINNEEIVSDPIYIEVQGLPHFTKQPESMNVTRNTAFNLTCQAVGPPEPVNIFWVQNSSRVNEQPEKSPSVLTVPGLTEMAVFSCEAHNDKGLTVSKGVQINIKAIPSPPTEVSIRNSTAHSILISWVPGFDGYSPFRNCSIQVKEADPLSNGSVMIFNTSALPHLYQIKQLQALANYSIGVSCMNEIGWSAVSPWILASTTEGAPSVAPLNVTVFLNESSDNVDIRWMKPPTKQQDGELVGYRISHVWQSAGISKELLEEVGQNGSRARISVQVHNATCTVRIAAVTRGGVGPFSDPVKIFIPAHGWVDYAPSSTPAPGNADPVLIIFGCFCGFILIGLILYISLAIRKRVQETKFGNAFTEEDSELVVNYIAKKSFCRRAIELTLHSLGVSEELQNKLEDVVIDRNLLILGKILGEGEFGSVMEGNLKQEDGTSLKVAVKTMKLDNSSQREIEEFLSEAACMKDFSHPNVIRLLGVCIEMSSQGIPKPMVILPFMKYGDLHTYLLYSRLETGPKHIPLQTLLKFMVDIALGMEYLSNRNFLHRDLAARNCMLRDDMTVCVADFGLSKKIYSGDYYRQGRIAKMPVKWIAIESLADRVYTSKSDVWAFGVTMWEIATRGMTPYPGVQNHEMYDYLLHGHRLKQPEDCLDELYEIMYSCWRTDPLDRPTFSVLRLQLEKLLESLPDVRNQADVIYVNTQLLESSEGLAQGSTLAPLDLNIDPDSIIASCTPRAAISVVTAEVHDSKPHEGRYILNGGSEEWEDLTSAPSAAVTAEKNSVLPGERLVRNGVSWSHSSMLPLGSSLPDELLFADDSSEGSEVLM
In short: as §1

CDK7/cyclinH/MAT1(h) = CDK7/cyclinH/MAT1(h) (Homo sapiens, UniProt P50613)
In short: as §1

JAK2(h), sequence (O60674 whole entry): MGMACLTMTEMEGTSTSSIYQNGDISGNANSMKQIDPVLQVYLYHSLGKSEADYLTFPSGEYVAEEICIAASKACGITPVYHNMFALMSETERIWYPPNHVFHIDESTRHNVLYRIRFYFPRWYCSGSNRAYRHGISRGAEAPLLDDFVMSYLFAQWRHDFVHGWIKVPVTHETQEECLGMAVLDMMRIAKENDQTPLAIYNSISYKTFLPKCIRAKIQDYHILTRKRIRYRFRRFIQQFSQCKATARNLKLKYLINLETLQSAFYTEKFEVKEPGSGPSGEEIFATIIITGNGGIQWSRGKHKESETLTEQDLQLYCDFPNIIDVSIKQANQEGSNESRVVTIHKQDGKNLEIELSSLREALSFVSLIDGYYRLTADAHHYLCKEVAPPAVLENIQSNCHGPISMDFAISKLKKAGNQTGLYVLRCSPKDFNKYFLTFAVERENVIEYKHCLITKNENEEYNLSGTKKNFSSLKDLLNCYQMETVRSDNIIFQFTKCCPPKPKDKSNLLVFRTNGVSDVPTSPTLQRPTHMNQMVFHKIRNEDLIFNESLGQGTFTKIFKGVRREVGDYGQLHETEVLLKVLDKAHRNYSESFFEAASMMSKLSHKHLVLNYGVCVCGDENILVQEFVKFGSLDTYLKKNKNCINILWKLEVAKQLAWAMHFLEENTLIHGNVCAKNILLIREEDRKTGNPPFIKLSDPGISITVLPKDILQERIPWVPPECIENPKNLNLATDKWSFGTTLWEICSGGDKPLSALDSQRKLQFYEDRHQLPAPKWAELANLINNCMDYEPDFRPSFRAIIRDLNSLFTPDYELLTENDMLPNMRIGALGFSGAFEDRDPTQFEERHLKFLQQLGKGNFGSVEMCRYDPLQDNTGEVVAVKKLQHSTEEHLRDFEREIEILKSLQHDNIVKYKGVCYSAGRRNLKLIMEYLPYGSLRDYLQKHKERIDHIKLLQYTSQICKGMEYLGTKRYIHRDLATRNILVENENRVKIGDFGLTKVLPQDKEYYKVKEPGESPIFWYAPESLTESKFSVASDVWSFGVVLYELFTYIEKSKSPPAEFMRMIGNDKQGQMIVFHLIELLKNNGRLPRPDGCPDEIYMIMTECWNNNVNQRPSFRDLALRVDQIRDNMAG
Plk1(h), sequence (P53350 whole entry): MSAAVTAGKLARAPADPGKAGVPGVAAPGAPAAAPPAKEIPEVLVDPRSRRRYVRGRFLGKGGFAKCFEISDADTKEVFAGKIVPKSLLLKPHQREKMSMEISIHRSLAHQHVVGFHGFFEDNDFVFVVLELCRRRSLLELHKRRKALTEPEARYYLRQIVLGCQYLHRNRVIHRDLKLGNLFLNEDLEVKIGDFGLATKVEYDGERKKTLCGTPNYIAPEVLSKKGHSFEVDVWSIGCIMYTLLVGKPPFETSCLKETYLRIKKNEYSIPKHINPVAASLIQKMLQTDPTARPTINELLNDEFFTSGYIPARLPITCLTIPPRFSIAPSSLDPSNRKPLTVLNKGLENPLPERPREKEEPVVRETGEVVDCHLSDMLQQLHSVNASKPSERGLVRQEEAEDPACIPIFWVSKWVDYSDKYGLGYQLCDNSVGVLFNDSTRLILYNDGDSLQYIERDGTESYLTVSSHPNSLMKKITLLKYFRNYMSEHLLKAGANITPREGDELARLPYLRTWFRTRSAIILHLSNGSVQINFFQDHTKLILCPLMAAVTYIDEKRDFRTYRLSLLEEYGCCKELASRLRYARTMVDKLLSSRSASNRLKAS
Fms(h), sequence (P07333 20-972): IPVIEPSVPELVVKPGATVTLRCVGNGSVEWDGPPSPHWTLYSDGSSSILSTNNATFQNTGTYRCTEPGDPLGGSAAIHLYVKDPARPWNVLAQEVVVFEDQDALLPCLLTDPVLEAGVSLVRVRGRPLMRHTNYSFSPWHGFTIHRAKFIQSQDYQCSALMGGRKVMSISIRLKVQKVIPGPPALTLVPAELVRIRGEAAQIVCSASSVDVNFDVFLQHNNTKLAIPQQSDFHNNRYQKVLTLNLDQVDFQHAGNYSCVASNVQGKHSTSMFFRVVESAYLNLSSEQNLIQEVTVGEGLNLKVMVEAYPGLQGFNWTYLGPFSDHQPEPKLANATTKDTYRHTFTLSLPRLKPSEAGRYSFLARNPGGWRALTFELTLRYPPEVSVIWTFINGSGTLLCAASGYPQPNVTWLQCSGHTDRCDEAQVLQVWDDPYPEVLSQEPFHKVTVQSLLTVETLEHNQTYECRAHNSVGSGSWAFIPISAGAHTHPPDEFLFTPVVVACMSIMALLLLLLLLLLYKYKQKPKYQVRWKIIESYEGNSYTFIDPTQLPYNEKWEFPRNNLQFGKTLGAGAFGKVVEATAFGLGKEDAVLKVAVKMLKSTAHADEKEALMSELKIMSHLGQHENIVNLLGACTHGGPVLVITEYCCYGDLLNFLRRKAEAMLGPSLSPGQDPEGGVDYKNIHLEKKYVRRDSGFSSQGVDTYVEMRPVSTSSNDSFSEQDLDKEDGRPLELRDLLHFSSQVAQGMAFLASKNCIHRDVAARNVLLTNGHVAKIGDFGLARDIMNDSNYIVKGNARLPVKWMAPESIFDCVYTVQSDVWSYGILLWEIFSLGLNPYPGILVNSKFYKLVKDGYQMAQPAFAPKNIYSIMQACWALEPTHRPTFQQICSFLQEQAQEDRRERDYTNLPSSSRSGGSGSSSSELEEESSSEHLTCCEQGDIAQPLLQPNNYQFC
HIPK1(h), sequence (Q86Z02 whole entry): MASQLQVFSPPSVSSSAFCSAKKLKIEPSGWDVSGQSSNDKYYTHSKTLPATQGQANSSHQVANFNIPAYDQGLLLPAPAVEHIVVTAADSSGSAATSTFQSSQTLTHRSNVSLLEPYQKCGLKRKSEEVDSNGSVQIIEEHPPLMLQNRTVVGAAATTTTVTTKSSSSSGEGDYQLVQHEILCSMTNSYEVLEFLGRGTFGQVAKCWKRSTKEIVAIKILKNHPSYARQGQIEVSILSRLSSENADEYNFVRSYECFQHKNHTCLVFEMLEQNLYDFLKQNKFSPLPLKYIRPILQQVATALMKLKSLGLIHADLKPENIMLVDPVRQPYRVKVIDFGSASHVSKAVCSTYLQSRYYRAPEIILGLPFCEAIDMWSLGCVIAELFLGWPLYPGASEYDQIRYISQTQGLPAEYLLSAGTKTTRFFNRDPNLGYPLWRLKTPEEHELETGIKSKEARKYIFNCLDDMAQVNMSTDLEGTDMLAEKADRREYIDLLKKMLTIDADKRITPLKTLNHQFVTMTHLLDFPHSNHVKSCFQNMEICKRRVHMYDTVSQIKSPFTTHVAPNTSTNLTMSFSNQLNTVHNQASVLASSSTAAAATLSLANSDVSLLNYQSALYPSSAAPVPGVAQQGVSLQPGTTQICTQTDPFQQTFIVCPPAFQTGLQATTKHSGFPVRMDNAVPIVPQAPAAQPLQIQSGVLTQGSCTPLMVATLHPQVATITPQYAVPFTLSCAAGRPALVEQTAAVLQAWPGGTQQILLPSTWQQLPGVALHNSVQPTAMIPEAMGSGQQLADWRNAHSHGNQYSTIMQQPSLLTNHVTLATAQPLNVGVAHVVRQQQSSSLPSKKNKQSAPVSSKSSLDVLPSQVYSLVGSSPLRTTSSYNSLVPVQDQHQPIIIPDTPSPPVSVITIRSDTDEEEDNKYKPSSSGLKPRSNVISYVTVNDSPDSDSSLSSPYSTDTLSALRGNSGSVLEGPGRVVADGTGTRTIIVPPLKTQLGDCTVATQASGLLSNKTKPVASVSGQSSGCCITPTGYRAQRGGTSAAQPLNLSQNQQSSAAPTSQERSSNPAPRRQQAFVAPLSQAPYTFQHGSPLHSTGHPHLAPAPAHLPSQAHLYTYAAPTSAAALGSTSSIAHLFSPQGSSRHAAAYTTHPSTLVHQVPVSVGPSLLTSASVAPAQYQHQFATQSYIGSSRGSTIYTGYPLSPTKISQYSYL
CHK2(h), sequence (O96017 whole entry): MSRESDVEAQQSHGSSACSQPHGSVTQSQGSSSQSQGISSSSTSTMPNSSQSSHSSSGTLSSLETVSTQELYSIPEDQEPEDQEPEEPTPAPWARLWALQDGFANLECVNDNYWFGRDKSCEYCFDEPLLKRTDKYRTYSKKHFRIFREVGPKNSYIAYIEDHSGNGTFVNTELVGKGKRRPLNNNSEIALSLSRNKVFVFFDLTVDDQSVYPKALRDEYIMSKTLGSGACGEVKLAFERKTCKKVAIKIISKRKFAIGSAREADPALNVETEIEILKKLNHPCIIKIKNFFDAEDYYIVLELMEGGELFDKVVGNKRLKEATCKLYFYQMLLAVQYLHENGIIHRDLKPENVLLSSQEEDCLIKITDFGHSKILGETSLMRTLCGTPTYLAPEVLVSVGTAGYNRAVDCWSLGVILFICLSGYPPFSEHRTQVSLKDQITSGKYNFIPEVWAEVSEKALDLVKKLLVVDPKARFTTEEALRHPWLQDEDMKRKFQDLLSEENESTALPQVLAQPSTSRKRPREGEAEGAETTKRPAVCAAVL

## Nc1n[nH]c2ccc(-c3ccnc4[nH]c(-c5cccc(OCc6ccccc6)c5)cc34)cc12 [Compound 5r [SU1261]]
ZAP-70(h)
  inhibition at 1 µM: -27%
JAK2(h)
  inhibition at 1 µM: 73%
SGK(h)
  inhibition at 1 µM: -10%
CDK2/cyclinA(h)
  inhibition at 1 µM: 61%
CHK2(h)
  inhibition at 1 µM: 13%
HIPK1(h)
  inhibition at 1 µM: -11%
Fms(h)
  inhibition at 1 µM: 58%
CDK1/cyclinB(h)
  inhibition at 1 µM: 77%
ErbB4(h)
  inhibition at 1 µM: 14%
Plk1(h)
  inhibition at 1 µM: -1%
Mer(h)
  inhibition at 1 µM: 27%
CDK7/cyclinH/MAT1(h)
  inhibition at 1 µM: 37%

## Nc1n[nH]c2ccc(-c3ccnc4[nH]c(-c5ccnc(OCc6ccccc6)c5)cc34)cc12 [Compound 6g [SU1349]]
ZAP-70(h)
  inhibition at 1 µM: -22%
JAK2(h)
  inhibition at 1 µM: 35%
SGK(h)
  inhibition at 1 µM: 22%
CDK2/cyclinA(h)
  inhibition at 1 µM: 37%
CHK2(h)
  inhibition at 1 µM: -5%
HIPK1(h)
  inhibition at 1 µM: 5%
Fms(h)
  inhibition at 1 µM: 10%
CDK1/cyclinB(h)
  inhibition at 1 µM: 58%
ErbB4(h)
  inhibition at 1 µM: -5%
Plk1(h)
  inhibition at 1 µM: 2%
Mer(h)
  inhibition at 1 µM: 12%
CDK7/cyclinH/MAT1(h)
  inhibition at 1 µM: 14%

## Nc1n[nH]c2ccc(-c3ccnc4[nH]c(-c5ccccc5)cc34)cc12 [Compound 4]
ZAP-70(h)
  inhibition at 1 µM: -8%
JAK2(h)
  inhibition at 1 µM: 88%
SGK(h)
  inhibition at 1 µM: 15%
CDK2/cyclinA(h)
  inhibition at 1 µM: 99%
CHK2(h)
  inhibition at 1 µM: 28%
HIPK1(h)
  inhibition at 1 µM: 14%
Fms(h)
  inhibition at 1 µM: 91%
CDK1/cyclinB(h)
  inhibition at 1 µM: 101%
ErbB4(h)
  inhibition at 1 µM: 20%
Plk1(h)
  inhibition at 1 µM: -5%
Mer(h)
  inhibition at 1 µM: 88%
CDK7/cyclinH/MAT1(h)
  inhibition at 1 µM: 85%
